“Also recorded” adds a separate entry of the source.
Key:
[1] = test system: P388 leukemia cells; assay: DNA synthesis in P388 leukemia cells in vivo; design: species or system mice; details: 80 mg/kg, for 7 hours after treatment
Protocol: (§1) Relative to activity against leukemia and antiviral activity, the following summation was found: Levels of F-AraATP in acid-soluble extracts prepared from L1210 and P388 leukemia cells in mice treated with 2-F-AraA (80 mg/kg) were determined by HPLC. […] Inhibition of DNA synthesis by 2-F-AraA (80 mg/kg) in L1210 and P388 leukemia cells in vivo was pronounced for 7 hours after treatment. […] 2-F-AraA was effective against P388 leukemia; % increase in median life span of mice treated with 80 and 52 mg/kg (q3hrsx8; days 1,5,9 after implant of 10^6 cells) was 170% and 150%.

[2] = test system: P388 leukemia; assay: Therapeutic activity against P388 leukemia in mice; assay type: in vivo; details: for % increase in median life span: days 1,5,9 after implant of 10^6 cells
Protocol: as §1

Nc1nc(F)nc2c1ncn2[C@@H]1O[C@H](CO)[C@@H](O)[C@@H]1O [2-F-AraA, 9-β-D-arabinofuranosyl-2-fluoroadenine]
inhibition of DNA synthesis in vivo [1]: pronounced | % increase in median life span ([2]; 52 mg/kg q3hrsx8): 150% | % increase in median life span ([2]; 80 mg/kg q3hrsx8): 170% | activity against P388 leukemia in mice ([2]; mouse, in vivo): effective; also recorded: active

From US4188378A, “Anticancer and antiviral activity of 9-β-D-arabinofuranosyl-2-fluoroadenine” (The United States of America as represented by the …, priority 1978, dated 1980)
